{
  "source": "patent US10183039B2",
  "about": "“Methods for the production of collagen IV” (Vanderbilt University, priority 2013, dated 2019)",
  "biological_target": "T1, peroxidasin (Mus musculus, UniProt Q3UQ28)",
  "T1 construct": "Cultured murine PFHR9 cells synthesize collagen IV networks that contain sulfilimine crosslinks due to the activity of PXDN; endogenous in cells; host or cells: PFHR-9 cells (isolated matrix from KI-treated culture)",
  "T1 sequence (Q3UQ28 24-1475)": "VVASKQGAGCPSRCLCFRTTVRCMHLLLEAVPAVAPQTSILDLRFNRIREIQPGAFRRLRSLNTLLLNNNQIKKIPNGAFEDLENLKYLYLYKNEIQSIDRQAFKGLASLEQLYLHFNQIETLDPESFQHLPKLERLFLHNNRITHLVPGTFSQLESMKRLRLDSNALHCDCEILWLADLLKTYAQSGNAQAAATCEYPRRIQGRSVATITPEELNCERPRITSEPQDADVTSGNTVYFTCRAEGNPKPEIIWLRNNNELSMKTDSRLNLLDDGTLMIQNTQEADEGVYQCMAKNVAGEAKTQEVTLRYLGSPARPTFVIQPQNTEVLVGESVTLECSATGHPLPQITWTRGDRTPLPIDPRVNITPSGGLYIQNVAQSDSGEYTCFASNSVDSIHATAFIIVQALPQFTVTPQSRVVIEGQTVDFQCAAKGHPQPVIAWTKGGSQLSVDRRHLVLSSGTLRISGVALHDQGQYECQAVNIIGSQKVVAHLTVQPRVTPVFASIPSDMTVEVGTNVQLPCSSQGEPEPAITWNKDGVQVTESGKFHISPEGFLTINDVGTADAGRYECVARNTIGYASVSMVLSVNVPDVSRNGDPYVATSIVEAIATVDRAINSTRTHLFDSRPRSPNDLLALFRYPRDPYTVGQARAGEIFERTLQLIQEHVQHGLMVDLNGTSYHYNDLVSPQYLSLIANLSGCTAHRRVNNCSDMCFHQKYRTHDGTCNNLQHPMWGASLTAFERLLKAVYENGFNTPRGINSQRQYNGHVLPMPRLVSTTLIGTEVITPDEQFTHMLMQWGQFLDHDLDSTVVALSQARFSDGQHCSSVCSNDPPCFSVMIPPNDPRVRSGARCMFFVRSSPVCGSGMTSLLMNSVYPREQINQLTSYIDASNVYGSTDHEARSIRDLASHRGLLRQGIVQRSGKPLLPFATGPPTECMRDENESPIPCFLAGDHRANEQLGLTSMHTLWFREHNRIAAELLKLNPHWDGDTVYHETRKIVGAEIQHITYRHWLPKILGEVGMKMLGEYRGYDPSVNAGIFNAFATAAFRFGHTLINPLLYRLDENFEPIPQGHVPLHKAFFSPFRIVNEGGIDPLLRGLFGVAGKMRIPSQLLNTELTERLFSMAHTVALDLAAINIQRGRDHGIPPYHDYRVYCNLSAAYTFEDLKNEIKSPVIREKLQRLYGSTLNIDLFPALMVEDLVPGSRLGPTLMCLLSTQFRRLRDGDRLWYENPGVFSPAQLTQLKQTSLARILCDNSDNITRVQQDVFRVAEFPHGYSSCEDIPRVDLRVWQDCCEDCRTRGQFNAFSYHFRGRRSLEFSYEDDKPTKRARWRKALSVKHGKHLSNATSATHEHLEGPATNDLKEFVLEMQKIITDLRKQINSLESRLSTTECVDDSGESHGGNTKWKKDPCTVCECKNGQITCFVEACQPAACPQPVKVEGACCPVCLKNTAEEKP",
  "assay": "In vitro basement membrane (uncrosslinked PFHR-9 matrix) reaction with halides and H2O2",
  "format": "biochemical",
  "method": "(FIG. 8A) Matrix pellets isolated from KI-treated PFHR9 cell culture were extensively washed into 10 mM phosphate buffer (pH 7.4) supplemented with 100 mM KF to maintain ionic strength. Potassium salts of Cl— or Br— were added in indicated amounts. 1 hr reactions at 37° C. were initiated by addition of H2O2 to 1 mM and stopped by freezing at −20° C. Coomassie blue-stained gels after collagenase digestion of the samples and SDS-PAGE (FIG. 8B) Schematic of Br-Free chloride salt purification apparatus and setup. […] Reagent KCl was commercially obtained and unaltered prior to analysis. 100 mM solutions were made with 18MΩ deionized water. (FIG. 8C) Coomassie blue stained gel of collagenase digested PFHR-9 matrix reaction assay. Reaction buffered contained 10 mM phosphate buffer (pH 7.4), 100 mM Br-Free or Commercially obtained reagent grade KCl, as well as 1 mM H2O2 and 200 μM PHG where appropriate. (FIG. 8D) SDS-PAGE and coomassie blue stain of hPXDN (27.25 nM) and NC1 domain (1.3 μM) reaction and subsequent densiometric quantitation of S═N bond formation stiochiometry in response to NaBr addition. hPXDN and PFHR-9 NC1 domain were prepared and purified as described (5), except with all buffers for all purification steps (dialysis, chromatography, gradient ultracentrifugation) made with Br-Free chloride salts. Reactions were run for 10 minutes at 37° C. with 10 μM H2O2 as the terminal oxidant. Dose-response curve run in the presence of 1× Br-Free PBS. Reactions were quenched with 0.2 mg/ml Catalase, 20 mM Methionine, and 1 mM PHG. EC50 value±95% C.I. from two independent experiments with each data point plotted and fit.\nUncrosslinked PFHR9 matrix was extensively washed into 10 mM phosphate buffer (pH 7.4) that was supplemented with 100 mM KF to maintain ionic strength. One hour reactions at 37° C. were initiated by addition of H2O2 to 1 mM and stopped by freezing at −20° C. […] Samples were digested with collagenase at 37° C. overnight and visualized by SDS-PAGE using 12% gels under non-reducing conditions with Coomassie staining.\nPFHR-9 cells treated with potassium iodide (1-10 mM) to eliminate NC1 hexamer crosslinks were used for basement membrane isolation. To test halide dependency, the inventors established halide-free conditions by washing extensively (at least five times) with 10 mM sodium phosphate pH 7.4. To try to extract or inactivate endogenous basement membrane peroxidase activity, the inventors extracted the matrix preparation twice with 2M guanidine-Cl, 50 mM Tris-Cl pH 7.5 and 10 mM EDTA-Na pH 8 followed by extensive washing with 1×PBS. Basement membrane was resuspended in the desired buffer with or without cofactors and inhibitors to examine in vitro NC1 crosslinking under various conditions. Basement membranes were collagenase solubilized to delineate collagen IV NC1 sulfilimine crosslink formation with SDS-PAGE and Coomassie blue staining membrane was isolated, washed extensively and resuspended in 1×PBS. Azide (0-10 mM) and 1 mM H2O2 were added and allowed to react for 1 h at 37° C. The matrix was pelleted, washed extensively with 1×PBS and solubilized with 1×PBS plus 2% (w/v) SDS. Solubilized proteins were reacted with 100 μM Tris[(1-benzyl-1H-1,2,3-triazol-4-yl)methyl]amine (Anaspec), 1 mM Tris(2-carboxyethyl)phosphine hydrochloride (ThermoFisher Pierce), 1 mM cupric sulfate and 100 μM biotin alkyne (PEG4 carboxamide-propargyl biotin; Life Technologies) for 1 h at 37° C. Click chemistry reactions were quenched with 1 mM 3′-azido-3′-deoxythymidine (Sigma). For avidin-HRP detection, samples were electrophoresed under reducing conditions, transferred to nitrocellulose membranes and probed with streptavidin-HRP according to manufacturer instructions (ThermoFisher Pierce). To isolate biotinylated proteins, the inventors precipitated click reaction products with two volumes of cold acetone to remove reactants, washed them with 70% (v/v) acetone and then resolubilized them in 1×PBS plus 2% SDS.",
  "data": [
    {"compound": "Br", "note": "[bromide]", "values": [
      {"measurement": "crosslink formation on bromide addition to Br-free chloride", "value": "restored"},
      {"measurement": "halide concentration at which crosslinked dimeric subunits formed", "value": "~100", "unit": "mM"},
      {"measurement": "halide concentration permitting enzymatic crosslinking within purified matrix", "value": 10, "unit": "µM"},
      {"measurement": "S═N bond formation in isolated matrix", "setting": "pH 7.4", "value": "robustly catalyzed bond formation at 10 μM"}
    ]}
  ]
}
